The results in this text go back to patent US20250243196A1, “CITRON KINASE INHIBITORS” (The Cleveland Clinic Foundation, priority 2021, published 2025).

A word on the IC50: it is the concentration at which inhibition is half-maximal. Broadly, the Kd is the free concentration of one partner at which half of the binding sites on the other are occupied at equilibrium, for simple one-to-one binding.

One assay has as its target Citron kinase (Homo sapiens (Human), UniProt O14578). Put plainly: Radiometric citron kinase assay (Eurofins Cat #16-040KP). The class given is biochemical. To be noted: mean of at least two independent assays; read-out: Radiometric CitK IC50. In outline:
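Radiometric KinaseProfiler format: test compound incubated with kinase, substrate, cofactors and radiolabelled ATP; unreacted ATP washed away and radiolabelled phosphate incorporated into substrate measured. IC50 derived from inhibition of phosphorylation. Values are means of at least two independent assays.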

Assay [1] deals with NanoLuc-CITK (full-length human CITK) (Homo sapiens (Human), UniProt O14578). Put plainly: NanoBRET intracellular target engagement assay. It is filed as cell-based. As to the method: In-cell Kd values were evaluated with a NanoBRET Target Engagement Assay essentially as recommended by the manufacturer (Promega Corporation—for details see https://www.promega.com/resources/technologies/nanoluc-luciferase-enzyme/cellular-target-engagement/).
NanoLuc-CITK (full-length human CITK), sequence (O14578 other isoform, or with tags, fused parts or gaps): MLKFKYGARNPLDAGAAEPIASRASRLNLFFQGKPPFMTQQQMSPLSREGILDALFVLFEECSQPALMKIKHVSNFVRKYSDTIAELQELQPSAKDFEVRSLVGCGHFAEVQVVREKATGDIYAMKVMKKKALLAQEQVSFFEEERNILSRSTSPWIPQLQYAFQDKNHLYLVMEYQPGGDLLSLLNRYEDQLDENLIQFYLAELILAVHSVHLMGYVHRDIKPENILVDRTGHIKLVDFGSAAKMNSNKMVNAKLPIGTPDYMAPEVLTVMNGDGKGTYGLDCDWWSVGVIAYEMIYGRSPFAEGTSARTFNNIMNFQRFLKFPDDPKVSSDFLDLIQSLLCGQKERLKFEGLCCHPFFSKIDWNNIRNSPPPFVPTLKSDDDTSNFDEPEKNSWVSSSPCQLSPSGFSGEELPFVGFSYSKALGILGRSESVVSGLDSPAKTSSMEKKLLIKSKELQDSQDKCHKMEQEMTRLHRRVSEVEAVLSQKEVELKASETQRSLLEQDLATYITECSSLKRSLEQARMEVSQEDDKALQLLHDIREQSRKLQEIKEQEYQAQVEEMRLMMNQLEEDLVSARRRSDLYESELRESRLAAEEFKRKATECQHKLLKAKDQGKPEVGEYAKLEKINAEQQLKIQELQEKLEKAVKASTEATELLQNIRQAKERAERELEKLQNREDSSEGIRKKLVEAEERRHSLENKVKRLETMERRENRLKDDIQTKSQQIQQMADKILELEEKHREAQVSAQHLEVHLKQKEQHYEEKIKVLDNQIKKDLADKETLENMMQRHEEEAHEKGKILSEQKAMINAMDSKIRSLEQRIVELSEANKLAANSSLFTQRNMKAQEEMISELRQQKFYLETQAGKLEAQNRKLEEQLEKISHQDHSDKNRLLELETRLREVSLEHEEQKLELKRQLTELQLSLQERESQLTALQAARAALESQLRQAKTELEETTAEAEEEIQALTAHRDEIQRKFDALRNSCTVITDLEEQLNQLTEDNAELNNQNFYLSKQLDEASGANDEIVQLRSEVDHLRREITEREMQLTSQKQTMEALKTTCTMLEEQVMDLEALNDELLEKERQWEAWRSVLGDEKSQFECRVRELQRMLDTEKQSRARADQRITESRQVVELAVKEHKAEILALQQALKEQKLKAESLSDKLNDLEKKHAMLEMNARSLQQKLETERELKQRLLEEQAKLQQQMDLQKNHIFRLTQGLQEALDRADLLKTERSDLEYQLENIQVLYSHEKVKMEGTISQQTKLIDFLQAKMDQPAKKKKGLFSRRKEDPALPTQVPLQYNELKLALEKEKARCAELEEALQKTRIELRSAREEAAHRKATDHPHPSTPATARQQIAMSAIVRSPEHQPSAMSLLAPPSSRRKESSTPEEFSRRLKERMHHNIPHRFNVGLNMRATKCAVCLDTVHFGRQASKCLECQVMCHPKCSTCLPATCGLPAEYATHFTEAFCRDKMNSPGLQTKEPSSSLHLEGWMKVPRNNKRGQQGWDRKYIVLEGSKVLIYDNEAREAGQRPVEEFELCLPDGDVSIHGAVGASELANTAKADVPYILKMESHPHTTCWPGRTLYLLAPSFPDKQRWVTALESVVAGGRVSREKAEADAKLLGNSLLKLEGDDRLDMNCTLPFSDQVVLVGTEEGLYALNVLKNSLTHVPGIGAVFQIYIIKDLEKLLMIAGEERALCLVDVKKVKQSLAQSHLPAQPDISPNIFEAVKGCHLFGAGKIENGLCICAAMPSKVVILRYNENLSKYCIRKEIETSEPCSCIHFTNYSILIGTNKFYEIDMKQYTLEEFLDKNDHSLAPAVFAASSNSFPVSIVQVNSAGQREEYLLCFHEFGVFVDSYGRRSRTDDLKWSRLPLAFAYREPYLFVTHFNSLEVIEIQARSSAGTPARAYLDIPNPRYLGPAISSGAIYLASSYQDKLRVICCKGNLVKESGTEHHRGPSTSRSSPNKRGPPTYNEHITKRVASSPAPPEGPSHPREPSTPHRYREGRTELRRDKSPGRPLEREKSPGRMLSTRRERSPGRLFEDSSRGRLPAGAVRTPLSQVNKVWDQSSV
HEK293T cells were transfected with 5.0 μg/mL sterile NanoLuc-CITK DNA, 5.0 μg/mL Transfection Carrier DNA, and 30 μL/mL FugeneHD® (Promega) in Opti-Mem™ (Thermo) media at a cell density of 250,000 cells/mL. […] 5 μL of the 25× Tracer K10 solution was added to each well. Next, designated inhibitors were prepared from powder as 10 mM DMSO stocks and then further diluted to 10× the final assay concentration in Opti-Mem™. 12-pt dose-response curves were prepared by 3×-serial dilution. […] A 3× Complete Substrate+Inhibitor solution, containing 6 mL of Opti-Mem™, 36 μL of NanoBRET Nano-Glo Substrate, and 12 μL Extracellular NanoLuc Inhibitor was freshly prepared for each plate. 50 μL of the 3× Complete Substrate+Inhibitor solution was added to all wells and the plate was incubated for 2 min with 500 RPM shaking. The bottom of the plates were covered with black plate seals and then measured on a Cytation 5 plate reader (Biotek) with a NanoBRET Filter Cube (Biotek; 450/50 emission & 610LP emission). Background corrected BRET ratios (in mBU) were calculated in Excel and IC50's were subsequently extracted using four-parameter non-linear regression in GraphPad Prism 8.
For orientation: BRET reads energy transfer from a luciferase to a nearby fluorophore.

Another assay concerns the target AMPKα2(h) (Homo sapiens (Human), UniProt P54646). As to the kind of experiment: KinaseProfiler panel. The note with it: activity remaining. The class given is biochemical. Details: dose or concentration left out as unconfirmed.
A further assay concerns the target BIKE(h) (Homo sapiens (Human), UniProt Q9NSY1). As to the kind of experiment: KinaseProfiler panel. Further details: dose or concentration left out as unconfirmed. The class given is biochemical. The note with it: activity remaining.
The target in another assay is Blk(h) (Homo sapiens (Human), UniProt P51451). Put plainly: KinaseProfiler panel. The class given is biochemical. Details: dose or concentration left out as unconfirmed. The note with it: activity remaining.
The target in a further assay is CDK1/cyclinB(h) (Homo sapiens (Human), UniProt P06493). As to the kind of experiment: KinaseProfiler panel. The class given is biochemical. Further details: dose or concentration left out as unconfirmed. The note with it: activity remaining.
A further assay has as its target CDKL4(h) (Homo sapiens (Human), UniProt Q5MAI5). As to the kind of experiment: KinaseProfiler panel. It is filed as biochemical. The note with it: activity remaining. Further details: dose or concentration left out as unconfirmed.
For another assay, the target named is DDR1(h) (Homo sapiens (Human), UniProt Q08345). Put plainly: KinaseProfiler panel. It is filed as biochemical. Further details: dose or concentration left out as unconfirmed. To be noted: activity remaining.
The target of a further assay is EGFR(h) (Homo sapiens (Human), UniProt P00533). Put plainly: KinaseProfiler panel. Details: dose or concentration left out as unconfirmed. The class given is biochemical. The note with it: activity remaining.
The next assay has as its target EphA3(h) (Homo sapiens (Human), UniProt P29320). As to the kind of experiment: KinaseProfiler panel. The class given is biochemical. Further details: dose or concentration left out as unconfirmed. To be noted: activity remaining.
A further assay addresses GRK7(h) (Homo sapiens (Human), UniProt Q8WTQ7). Put plainly: KinaseProfiler panel. The class given is biochemical. Details: dose or concentration left out as unconfirmed. The note with it: activity remaining.
In a further assay the target is IGF-1R(h) (Homo sapiens (Human), UniProt P08069). Put plainly: KinaseProfiler panel. It is filed as biochemical. Details: dose or concentration left out as unconfirmed. To be noted: activity remaining.
IGF-1R(h), sequence (P08069 31-1367): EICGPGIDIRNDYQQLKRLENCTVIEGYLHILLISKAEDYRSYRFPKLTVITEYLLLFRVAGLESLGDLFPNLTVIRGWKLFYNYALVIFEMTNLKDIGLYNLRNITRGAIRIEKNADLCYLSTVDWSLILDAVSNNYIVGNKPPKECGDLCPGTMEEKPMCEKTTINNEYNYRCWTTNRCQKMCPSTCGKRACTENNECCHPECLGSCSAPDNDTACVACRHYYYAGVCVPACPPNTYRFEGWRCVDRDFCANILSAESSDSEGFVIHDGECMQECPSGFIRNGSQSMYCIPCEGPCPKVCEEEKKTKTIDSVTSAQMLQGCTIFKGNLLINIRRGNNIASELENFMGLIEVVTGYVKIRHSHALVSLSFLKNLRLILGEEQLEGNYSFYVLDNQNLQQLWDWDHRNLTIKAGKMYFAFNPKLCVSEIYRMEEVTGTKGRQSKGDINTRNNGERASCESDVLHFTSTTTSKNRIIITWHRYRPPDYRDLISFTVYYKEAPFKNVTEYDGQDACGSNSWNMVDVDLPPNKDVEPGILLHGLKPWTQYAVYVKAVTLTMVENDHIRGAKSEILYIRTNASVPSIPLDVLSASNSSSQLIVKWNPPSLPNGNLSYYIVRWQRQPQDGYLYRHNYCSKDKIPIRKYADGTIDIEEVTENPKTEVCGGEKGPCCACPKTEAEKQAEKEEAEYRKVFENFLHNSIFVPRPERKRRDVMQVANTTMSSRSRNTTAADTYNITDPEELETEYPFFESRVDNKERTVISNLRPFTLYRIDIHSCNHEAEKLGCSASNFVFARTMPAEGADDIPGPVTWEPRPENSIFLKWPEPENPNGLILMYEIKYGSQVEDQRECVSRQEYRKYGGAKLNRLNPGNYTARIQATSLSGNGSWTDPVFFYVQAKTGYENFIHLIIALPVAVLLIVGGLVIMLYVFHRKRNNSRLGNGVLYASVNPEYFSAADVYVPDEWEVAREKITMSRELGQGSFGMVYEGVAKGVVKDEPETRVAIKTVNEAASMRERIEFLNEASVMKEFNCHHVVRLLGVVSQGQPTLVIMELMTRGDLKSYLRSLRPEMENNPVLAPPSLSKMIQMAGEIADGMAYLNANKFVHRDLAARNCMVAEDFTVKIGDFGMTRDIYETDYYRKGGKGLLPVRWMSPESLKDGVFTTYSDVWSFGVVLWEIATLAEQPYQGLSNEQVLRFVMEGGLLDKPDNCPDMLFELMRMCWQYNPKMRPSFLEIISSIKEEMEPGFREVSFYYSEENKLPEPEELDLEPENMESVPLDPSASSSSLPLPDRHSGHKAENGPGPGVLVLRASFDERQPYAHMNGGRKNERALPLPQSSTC
A further assay deals with MEKK2(h) (Homo sapiens (Human), UniProt Q9Y2U5). As to the kind of experiment: KinaseProfiler panel. It is filed as biochemical. To be noted: activity remaining.
A further assay addresses NEK1(h) (Homo sapiens (Human), UniProt Q96PY6). As to the kind of experiment: KinaseProfiler panel. The class given is biochemical. Details: dose or concentration left out as unconfirmed. To be noted: activity remaining.
In the next assay the target is NEK9(h) (Homo sapiens (Human), UniProt Q8TD19). Put plainly: KinaseProfiler panel. Further details: dose or concentration left out as unconfirmed. To be noted: activity remaining. The class given is biochemical.
The next assay concerns the target PDGFRβ(h) (Homo sapiens (Human), UniProt P09619). As to the kind of experiment: KinaseProfiler panel. To be noted: activity remaining. The class given is biochemical. Further details: dose or concentration left out as unconfirmed.
Assay [2] deals with PI3 Kinase (p110d/p85a)(h) (Homo sapiens (Human), UniProt O00329). As to the kind of experiment: KinaseProfiler panel. Further details: dose or concentration left out as unconfirmed. The class given is biochemical. To be noted: activity remaining.
The target in the next assay is PKCζ(h) (Homo sapiens (Human), UniProt Q05513). Put plainly: KinaseProfiler panel. It is filed as biochemical. Details: dose or concentration left out as unconfirmed. To be noted: activity remaining.
The target in the next assay is ROCK-II(h) (Homo sapiens (Human), UniProt O75116). Put plainly: KinaseProfiler panel. The note with it: activity remaining. Further details: dose or concentration left out as unconfirmed. It is filed as biochemical.
The target of another assay is Tec(h) activated (Homo sapiens (Human), UniProt P42680). As to the kind of experiment: KinaseProfiler panel. Further details: dose or concentration left out as unconfirmed. To be noted: activity remaining. It is filed as biochemical.
Another assay addresses TSSK4(h) (Homo sapiens (Human), UniProt Q6SA08). As to the kind of experiment: KinaseProfiler panel. The class given is biochemical. Further details: dose or concentration left out as unconfirmed. The note with it: activity remaining.

CDKL4(h), sequence (Q5MAI5 whole entry): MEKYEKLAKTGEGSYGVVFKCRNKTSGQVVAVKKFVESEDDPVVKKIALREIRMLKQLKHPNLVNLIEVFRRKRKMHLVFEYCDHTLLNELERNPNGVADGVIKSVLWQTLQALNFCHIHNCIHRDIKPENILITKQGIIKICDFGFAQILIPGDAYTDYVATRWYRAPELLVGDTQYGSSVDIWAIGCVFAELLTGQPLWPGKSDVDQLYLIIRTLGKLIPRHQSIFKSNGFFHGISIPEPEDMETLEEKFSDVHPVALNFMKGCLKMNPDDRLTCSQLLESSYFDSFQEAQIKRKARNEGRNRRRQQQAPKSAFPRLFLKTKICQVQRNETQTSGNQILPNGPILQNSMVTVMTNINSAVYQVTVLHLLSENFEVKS
PDGFRβ(h), sequence (P09619 33-1106): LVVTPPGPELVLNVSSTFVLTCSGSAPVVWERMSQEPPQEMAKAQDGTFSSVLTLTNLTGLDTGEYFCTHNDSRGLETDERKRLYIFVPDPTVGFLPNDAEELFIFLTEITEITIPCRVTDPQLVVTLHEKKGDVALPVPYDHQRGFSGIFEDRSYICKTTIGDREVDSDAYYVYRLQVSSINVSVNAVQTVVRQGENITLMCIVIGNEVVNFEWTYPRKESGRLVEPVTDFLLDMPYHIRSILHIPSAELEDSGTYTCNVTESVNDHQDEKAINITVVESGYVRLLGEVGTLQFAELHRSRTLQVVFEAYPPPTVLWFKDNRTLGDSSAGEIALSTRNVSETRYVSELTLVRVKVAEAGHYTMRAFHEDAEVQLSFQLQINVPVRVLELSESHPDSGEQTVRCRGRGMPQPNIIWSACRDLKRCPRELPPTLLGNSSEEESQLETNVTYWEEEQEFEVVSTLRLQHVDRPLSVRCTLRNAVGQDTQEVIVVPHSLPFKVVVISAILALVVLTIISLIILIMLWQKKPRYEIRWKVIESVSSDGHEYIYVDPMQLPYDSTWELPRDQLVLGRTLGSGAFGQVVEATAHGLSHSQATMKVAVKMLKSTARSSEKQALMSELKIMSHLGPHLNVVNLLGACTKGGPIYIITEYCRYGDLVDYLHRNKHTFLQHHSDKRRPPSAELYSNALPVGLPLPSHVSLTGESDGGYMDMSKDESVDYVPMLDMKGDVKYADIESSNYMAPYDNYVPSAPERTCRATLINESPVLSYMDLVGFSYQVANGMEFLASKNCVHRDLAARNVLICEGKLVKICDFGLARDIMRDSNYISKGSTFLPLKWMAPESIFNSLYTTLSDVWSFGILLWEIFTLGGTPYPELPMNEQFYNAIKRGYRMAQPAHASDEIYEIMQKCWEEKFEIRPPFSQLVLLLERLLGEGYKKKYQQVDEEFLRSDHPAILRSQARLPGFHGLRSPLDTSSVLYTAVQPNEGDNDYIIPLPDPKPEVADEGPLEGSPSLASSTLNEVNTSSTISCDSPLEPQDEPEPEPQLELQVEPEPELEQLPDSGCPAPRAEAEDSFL

Take `Cc1cc2c(-c3ccc(NC(=O)[C@H](N)CC(C)(C)C)cc3C)ccnc2[nH]1` [Compound F-90, (2R)-2-Amino-4,4-dimethyl-N-[3-methyl-4-(2-methyl-1H-pyrrolo[2,3-b]pyridin-4-yl)phenyl]pentanamide]: the IC50 was determined as 12 nM on Citron kinase and 53 nM in assay [1] (HEK293T cells transfected with NanoLuc-CITK, Tracer K10 1 μM, 2 hours). In addition, the Kd in [1] came to 9.9 nM. In addition, the “% Activity” value on AMPKα2(h) turned out to be 117%; on BIKE(h), 50%; at Blk(h), 88%; at CDK1/cyclinB(h), 94%; on CDKL4(h) it was 104%; at DDR1(h) it was 98%. The “% Activity” value at EGFR(h) is reported as 107%; at EphA3(h), 79%; at GRK7(h) it was 98%; on IGF-1R(h), 98%; at MEKK2(h), 122%; at NEK1(h), 94%. The “% Activity” value at NEK9(h) is 79%; on PDGFRβ(h) it was 105%; in assay [2], 110%; at PKCζ(h), 88%; on ROCK-II(h), 96%; at Tec(h) activated it was 126%. In addition, the “% Activity” value at TSSK4(h) was found to be 117%.
